Data taken from patent US6355799B1, “Substituted benzene compounds, process for their preparation, and herbicidal and defoliant compositions containing them” (ISK Americas Incorporated, priority 1997, dated 2002).

Key:
Type in all cases: in vivo
[1] = tested on: redroot pigweed (Amaranthus retroflexus, AMARE); experiment: Pre-emerge test, greenhouse herbicide activity screening; details: phytotoxicity rating 0-100, 14 days after application
Method in brief: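 Herbicidal damage is scored 0 (none) to 100 (complete plant death) two weeks after a simulated field spray. Rates span 15–1000 g ai/ha, delivered in acetone at 187 l/ha. For post-emergence treatments, plants have 2–3 leaves and the spray carries 0.25% v/v non-ionic surfactant.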

[2] = tested on: velvetleaf (Abutilon theophrasti, ABUTH); experiment: as above; details: phytotoxicity rating 0-100, 14 days after application
Source text: (§1) A standard greenhouse herbicide activity screening system was used to evaluate the herbicidal efficacy and crop safety of these test compounds. Seven broadleaf weed species including redroot pigweed (Amaranthus retroflexus, AMARE, velvetleaf (Abutilon theophrasti, ABUTH), sicklepod (Cassia obtusifolia, CASOB), ivyleaf morningglory (Ipomoea hederacea, IPOHE), lambsquarters (Chenopodium album, CHEAL), common ragweed (Ambrosia artemisizfolia L., AMBEL), and cocklebur (Xanthium strumarium, XANST) were used as test species. Four grass weed species including green foxtail (Setaria viridis, SETVI), barnyardgrass (Echinochloa crus-galli, ECHCG), johnsongrass (Sorghum halepense, SORHA), and large crabgrass (Digitaria sanguinalis, DIGSA) were also used. In addition, three crop species, field corn (Zea mays L., var. Dekalb 535, CORN), soybean (Glycine max L., var. Pella 86, SOY), and is upland rice (Oryza sp., var. Tebonnet, RICE) were included.
(§2) All plants were grown in 10 cm square plastic pots which were filled with a sandy loam soil mix. For pre-emerge tests, seeds were planted one day prior to application of the test compounds. For post-emerge tests, seeds were planted 8-21 days prior to the test to allow emergence and good foliage development prior to application of the test substances. At the time of the post-emerge application, plants of all species were usually at the 2-3 leaf stage of development.
(§3) All test compounds Were dissolved in acetone and applied to the test units in a volume of 187 l /ha. Test materials were applied at rates ranging from 15 g ai/ha to 1000 g ai/ha using a track sprayer equipped with a TJ8001E even flow flat fan spray nozzle. Plants were arranged on a shelf so that the top of the canopy (post-emerge) or top of the soil surface (pre-emerge) was 40-45 cm below the nozzle. Pressurized air was used to force the test solution through the nozzle as it was mechanically advanced (via electrically driven chain drive) over the top of all test plants/pots. This application simulates a typical commercial field herbicide application.
(§4) In the post-emerge test, a commercial non-ionic surfactant was also included (0.25% v/v) to enhance wetting of the leaf surfaces of target plants. Immediately after application, test units of the pre-emerge applications were watered at the soil surface to incorporate the test materials. Subsequently, these test units were bottom-watered. Post-emerge test units were always bottom-watered.
(§5) At 14 days after application of the test materials, phytotoxicity ratings were recorded. A rating scale of 0-100 was used as previously described in Research Methods in Weed Science, 2nd edition, B. Truelove, Ed., Southern Weed Science Society, Auburn University, Auburn, Ala. 1977. Briefly, “0” corresponds to no damage and “100” corresponds to complete death of all plants in the test unit. This scale was used both to determine efficacy against weed species and damage to crop species. Herbicide activity data for various compounds of this invention, which are shown by compound No. in Tables 1-8, are shown in Tables 11 and 12.

[3] = tested on: large crabgrass (Digitaria sanguinalis, DIGSA); experiment: as above; details: phytotoxicity rating 0-100, 14 days after application
Source text: as §1, §2, §3, §4, §5

[4] = tested on: sicklepod (Cassia obtusifolia, CASOB); experiment: as above; details: phytotoxicity rating 0-100, 14 days after application
Source text: as §1, §2, §3, §4, §5

[5] = tested on: green foxtail (Setaria viridis, SETVI); experiment: as above; details: phytotoxicity rating 0-100, 14 days after application
Source text: as §1, §2, §3, §4, §5

[6] = tested on: lambsquarters (Chenopodium album, CHEAL); experiment: as above; details: phytotoxicity rating 0-100, 14 days after application
Source text: as §1, §2, §3, §4, §5

[7] = tested on: barnyardgrass (Echinochloa crus-galli, ECHCG); experiment: as above; details: phytotoxicity rating 0-100, 14 days after application
Source text: as §1, §2, §3, §4, §5

[8] = tested on: ivyleaf morningglory (Ipomoea hederacea, IPOHE); experiment: as above; details: phytotoxicity rating 0-100, 14 days after application
Source text: as §1, §2, §3, §4, §5

[9] = tested on: upland rice (Oryza sp., var. Tebonnet, RICE); experiment: Pre-emerge test, crop safety; details: crop damage rating 0-100, 14 days after application
Method in brief: (§6)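 Compounds in acetone were track-sprayed at 187 l/ha, 15–1000 g ai/ha, onto sandy loam pots. Pre-emerge seeds were sown one day before spraying, with surface watering afterwards. Post-emerge plants were at the 2–3 leaf stage and sprayed with 0.25% v/v non-ionic surfactant. Injury was rated 0–100 at 14 days.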

[10] = tested on: field corn (Zea mays L., var. Dekalb 535, CORN); experiment: Pre-emerge test, crop safety; details: crop damage rating 0-100, 14 days after application
Method in brief: as §6

[11] = tested on: upland rice (Oryza sp., var. Tebonnet, RICE); experiment: Post-emerge test, crop safety; details: post-emerge, 14 days after application, rating scale 0-100
Method in brief: (§7)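 Each test used a mechanized track sprayer delivering 187 l/ha of acetone solution at 15–1000 g ai/ha. Post-emerge foliage at 2–3 leaves was treated with added 0.25% v/v non-ionic surfactant and bottom-watered only. Injury was assessed on day 14, where 100 means total kill.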

[12] = tested on: field corn (Zea mays L., var. Dekalb 535, CORN); experiment: Post-emerge test, crop safety; details: post-emerge, 14 days after application, rating scale 0-100
Method in brief: as §7

[13] = tested on: velvetleaf (Abutilon theophrasti, ABUTH); experiment: Post-emerge test, greenhouse herbicide activity screening; details: post-emerge, 14 days after application, rating scale 0-100
Source text: as §1, §2, §3, §4, §5

[14] = tested on: large crabgrass (Digitaria sanguinalis, DIGSA); experiment: as above; details: post-emerge, 14 days after application, rating scale 0-100
Source text: as §1, §2, §3, §4, §5

[15] = tested on: sicklepod (Cassia obtusifolia, CASOB); experiment: as above; details: post-emerge, 14 days after application, rating scale 0-100
Source text: as §1, §2, §3, §4, §5

[16] = tested on: green foxtail (Setaria viridis, SETVI); experiment: as above; details: post-emerge, 14 days after application, rating scale 0-100
Source text: as §1, §2, §3, §4, §5

[17] = tested on: redroot pigweed (Amaranthus retroflexus, AMARE); experiment: as above; details: post-emerge, 14 days after application
Source text: as §1, §2, §3, §4, §5

[18] = tested on: lambsquarters (Chenopodium album, CHEAL); experiment: as above; details: post-emerge, 14 days after application, rating scale 0-100
Source text: as §1, §2, §3, §4, §5

[19] = tested on: barnyardgrass (Echinochloa crus-galli, ECHCG); experiment: as above; details: post-emerge, 14 days after application, rating scale 0-100
Source text: as §1, §2, §3, §4, §5

[20] = tested on: ivyleaf morningglory (Ipomoea hederacea, IPOHE); experiment: as above; details: post-emerge, 14 days after application, rating scale 0-100
Source text: as §1, §2, §3, §4, §5

[21] = 63 g ai/ha, rating scale 0-100 (0 no damage, 100 complete death)
[22] = 250 g ai/ha, rating scale 0-100

Compound	Pre-emerge Herbicidal Activity AMARE ([1]; 63 g ai/ha)	Pre-emerge Herbicidal Activity AMARE ([1]; 250 g ai/ha)	Pre-emerge Herbicidal Activity ABUTH ([2]; 63 g ai/ha)	Pre-emerge Herbicidal Activity ABUTH ([2]; 250 g ai/ha)	Pre-emerge Herbicidal Activity DIGSA ([3]; 63 g ai/ha)	Pre-emerge Herbicidal Activity DIGSA ([3]; 250 g ai/ha)	Pre-emerge Herbicidal Activity CASOB ([4]; 63 g ai/ha)	Pre-emerge Herbicidal Activity CASOB ([4]; 250 g ai/ha)	Pre-emerge Herbicidal Activity SETVI ([5]; 63 g ai/ha)	Pre-emerge Herbicidal Activity SETVI ([5]; 250 g ai/ha)	Pre-emerge Herbicidal Activity CHEAL ([6]; 63 g ai/ha)	Pre-emerge Herbicidal Activity CHEAL ([6]; 250 g ai/ha)	Pre-emerge Herbicidal Activity ECHCG ([7]; 63 g ai/ha)	Pre-emerge Herbicidal Activity ECHCG ([7]; 250 g ai/ha)	Pre-emerge Herbicidal Activity IPOHE ([8]; 63 g ai/ha)	Pre-emerge Herbicidal Activity IPOHE ([8]; 250 g ai/ha)	Pre-emerge Herbicidal Activity RICE ([9]; 63 g ai/ha)	Pre-emerge Herbicidal Activity RICE ([9]; 250 g ai/ha)	Pre-emerge Herbicidal Activity CORN ([10]; 63 g ai/ha)	Pre-emerge Herbicidal Activity CORN ([10]; 250 g ai/ha)	further results
COc1c(Cl)cc(F)c(-n2c(=O)cc(C(F)(F)F)n(C)c2=O)c1NC(=O)OCc1cccc(F)c1 [4-44]	100	100	100	100	100	100	100	100	100	100	100	100	80	95	100	100	70	65	70	95	phytotoxicity rating RICE (crop damage) ([11]; 63 g ai/ha): 70; phytotoxicity rating RICE (crop damage) ([11]; 250 g ai/ha): 80; phytotoxicity rating CORN (crop damage) ([12]; 63 g ai/ha): 90; phytotoxicity rating CORN (crop damage) ([12]; 250 g ai/ha): 100; phytotoxicity rating ABUTH ([13]; 63 g ai/ha): 100; phytotoxicity rating ABUTH ([13]; 250 g ai/ha): 100; phytotoxicity rating DIGSA ([14]; 63 g ai/ha): 70; phytotoxicity rating DIGSA ([14]; 250 g ai/ha): 95; phytotoxicity rating CASOB ([15]; 63 g ai/ha): 100; phytotoxicity rating CASOB ([15]; 250 g ai/ha): 100; phytotoxicity rating SETVI ([16]; 63 g ai/ha): 95; phytotoxicity rating SETVI ([16]; 250 g ai/ha): 90; phytotoxicity rating AMARE [17, 21]: 100; phytotoxicity rating AMARE [17, 22]: 100; phytotoxicity rating CHEAL ([18]; 63 g ai/ha): 100; phytotoxicity rating CHEAL ([18]; 250 g ai/ha): 100; phytotoxicity rating ECHCG ([19]; 63 g ai/ha): 70; phytotoxicity rating ECHCG ([19]; 250 g ai/ha): 90; phytotoxicity rating IPOHE ([20]; 63 g ai/ha): 100; phytotoxicity rating IPOHE ([20]; 250 g ai/ha): 100
COc1c(Cl)cc(F)c(-n2c(=O)cc(C(F)(F)F)n(C)c2=O)c1NC(=O)OCc1ccc(OC(F)(F)F)cc1 [4-45]	30	100	50	90	0	70	0	40	0	50	50	95	0	40	10	40	0	10	0	20	phytotoxicity rating RICE (crop damage) ([11]; 63 g ai/ha): 10; phytotoxicity rating RICE (crop damage) ([11]; 250 g ai/ha): 20; phytotoxicity rating CORN (crop damage) ([12]; 63 g ai/ha): 10; phytotoxicity rating CORN (crop damage) ([12]; 250 g ai/ha): 20; phytotoxicity rating ABUTH ([13]; 63 g ai/ha): 100; phytotoxicity rating ABUTH ([13]; 250 g ai/ha): 100; phytotoxicity rating DIGSA ([14]; 63 g ai/ha): 10; phytotoxicity rating DIGSA ([14]; 250 g ai/ha): 20; phytotoxicity rating CASOB ([15]; 63 g ai/ha): 80; phytotoxicity rating CASOB ([15]; 250 g ai/ha): 80; phytotoxicity rating SETVI ([16]; 63 g ai/ha): 30; phytotoxicity rating SETVI ([16]; 250 g ai/ha): 60; phytotoxicity rating AMARE [17, 21]: 90; phytotoxicity rating AMARE [17, 22]: 95; phytotoxicity rating CHEAL ([18]; 63 g ai/ha): 100; phytotoxicity rating CHEAL ([18]; 250 g ai/ha): 100; phytotoxicity rating ECHCG ([19]; 63 g ai/ha): 20; phytotoxicity rating ECHCG ([19]; 250 g ai/ha): 20; phytotoxicity rating IPOHE ([20]; 63 g ai/ha): 95; phytotoxicity rating IPOHE ([20]; 250 g ai/ha): 100
